The source of these data is ChEMBL document CHEMBL1201862, “PubChem BioAssay data set” (2004).

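48-hour exposure; five concentrations; linearly interpolated endpoints. At the GI50, growth is halved.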 Active and inactive are the calls of the source. Cut-off read from the data, not from the text of the source: active = GI50 up to about 1.1 µM and inactive = higher.

Test systems include A498; A549; ACHN; HL-60; KM12; Malme-3M; NCI-H226; NCI-H522; OVCAR-3; OVCAR-5; SF-268; SK-MEL-28; SK-MEL-5; SK-OV-3; SR; U-251; UO-31; HOP-92.
Common to all, as to test: NCI tumour cell line growth inhibition, 48 h

`C/C(=C\c1ccccc1)C(O)C(=O)c1nc2ccc(Cl)cc2nc1O` (configuration not stated): the GI50 was > 100 µM (inactive) in the experiment on A498; > 100 µM (inactive) with A549; > 100 µM (inactive) with ACHN; 27 µM (inactive) with HL-60; > 100 µM (inactive) with KM12; > 100 µM (inactive) with Malme-3M. Also, the GI50 in the experiment on NCI-H226 is > 100 µM (inactive); in the experiment on NCI-H522, 52 µM (inactive); in the experiment with OVCAR-3, 55.2 µM (inactive); with OVCAR-5, > 100 µM (inactive); in the experiment on SF-268, > 100 µM (inactive); with SK-MEL-28, > 100 µM (inactive). The GI50 in the experiment on SK-MEL-5 was > 100 µM (inactive); with SK-OV-3, > 100 µM (inactive); in the experiment on SR it was 25.1 µM (inactive); in the experiment with U-251, > 100 µM (inactive); with UO-31, > 100 µM (inactive).

For `COc1ccc(C2=CC3CCC2C3)cc1` (configuration not stated), the GI50 in the experiment on A498 was 77.3 µM (inactive); in the experiment on A549, > 100 µM (inactive); with ACHN it was > 100 µM (inactive); with HL-60 it was 50 µM (inactive); with HOP-92, 59.8 µM (inactive); in the experiment with KM12, > 100 µM (inactive). The GI50 in the experiment with Malme-3M, in the experiment on NCI-H522, in the experiment with OVCAR-3, in the experiment with OVCAR-5, with SF-268 and with SK-MEL-28 was > 100 µM (inactive) each time. The GI50 was > 100 µM (inactive) with SK-MEL-5; 12.2 µM (inactive) in the experiment on SK-OV-3; > 100 µM (inactive) in the experiment on SR; > 100 µM (inactive) in the experiment on U-251; > 100 µM (inactive) in the experiment on UO-31.

For the compound `COc1cc([C@@H]2c3cc4c(cc3[C@@H](NC(=O)c3cccc(N)c3)C3COC(=O)[C@@H]32)OCO4)cc(OC)c1O` (some centres not stated), the GI50 was 0.76 µM (active) in the experiment with A498; 0.0465 µM (active) in the experiment with A549; 0.166 µM (active) in the experiment with ACHN; 0.233 µM (active) in the experiment with HL-60; 0.946 µM (active) in the experiment on HOP-92; 2.42 µM (inactive) in the experiment with KM12. Further, the GI50 is 0.942 µM (active) in the experiment with Malme-3M; 0.236 µM (active) in the experiment on NCI-H226; 4.35 µM (inactive) in the experiment on OVCAR-3; 2.58 µM (inactive) in the experiment with OVCAR-5; 0.935 µM (active) in the experiment with SF-268; 8.63 µM (inactive) in the experiment with SK-MEL-28. Besides, the GI50 in the experiment with SK-MEL-5 is 1.66 µM (inactive); in the experiment with SK-OV-3, 1.97 µM (inactive); in the experiment with SR, < 0.01 µM (active); in the experiment with U-251, 0.242 µM (active); in the experiment on UO-31, 9.06 µM (inactive).

For `O=C1c2ccccc2C(=O)N1CCn1nc(-c2ccccc2)cc(-c2ccccc2)c1=O`, the GI50 with A549 is 61.5 µM (inactive); with ACHN it was 34.7 µM (inactive); in the experiment with HL-60 it was 8.51 µM (inactive); with HOP-92, 37.8 µM (inactive); with KM12 it was > 100 µM (inactive); with Malme-3M, > 100 µM (inactive). For the same compound, the GI50 with NCI-H226 is 50.1 µM (inactive); in the experiment on NCI-H522, 18.6 µM (inactive); with OVCAR-3, 27.2 µM (inactive); with OVCAR-5, > 100 µM (inactive); in the experiment on SF-268 it was > 100 µM (inactive); in the experiment with SK-MEL-28, > 100 µM (inactive). Further, the GI50 in the experiment with SK-MEL-5 was 52.5 µM (inactive); in the experiment with SK-OV-3, > 100 µM (inactive); in the experiment on SR it was 5.4 µM (inactive); in the experiment with U-251 it was 71.1 µM (inactive); with UO-31 it was 18.9 µM (inactive).

For `COc1cccc(-c2nccc3c(OCc4ccccc4)c(OC)c(OC)cc23)c1`, the GI50 with A498 was > 100 µM (inactive); in the experiment with A549 it was > 100 µM (inactive); with ACHN, 54.6 µM (inactive); in the experiment on HL-60, 4.25 µM (inactive); in the experiment with HOP-92, > 100 µM (inactive); in the experiment on KM12, > 100 µM (inactive). The GI50 in the experiment with Malme-3M was 2.94 µM (inactive); with NCI-H226 it was > 100 µM (inactive); with NCI-H522, > 100 µM (inactive); with OVCAR-3 it was > 100 µM (inactive); in the experiment with OVCAR-5 it was > 100 µM (inactive); in the experiment with SF-268 it was > 100 µM (inactive). Also, the GI50 in the experiment on SK-MEL-5 is 8.97 µM (inactive); in the experiment on SK-OV-3, > 100 µM (inactive); in the experiment with SR, 6.68 µM (inactive); in the experiment on U-251, 6.46 µM (inactive); with UO-31, 7.29 µM (inactive).

For the compound `O=C(O)C1Cc2[nH]c3ccccc3c2C2CCCC12` (configuration not stated), the GI50 in the experiment on A498, with A549, in the experiment with ACHN, with HOP-92, with KM12 and in the experiment on Malme-3M was > 100 µM (inactive) in each case. The GI50 is 5.15 µM (inactive) in the experiment on NCI-H226; > 100 µM (inactive) with NCI-H522; > 100 µM (inactive) in the experiment with OVCAR-3; > 100 µM (inactive) with OVCAR-5; > 100 µM (inactive) in the experiment on SF-268; > 100 µM (inactive) in the experiment with SK-MEL-28. The GI50 in the experiment on SK-MEL-5, in the experiment with SK-OV-3, with SR, with U-251 and with UO-31 was > 100 µM (inactive) each time.

As for `Oc1cccc2nc3cc(CN4CCOCC4)c(CN4CCOCC4)cc3nc12`, the GI50 is > 100 µM (inactive) with A498; 40.5 µM (inactive) in the experiment with A549; 47.8 µM (inactive) with ACHN; 33.3 µM (inactive) in the experiment with HL-60; 46.7 µM (inactive) in the experiment on HOP-92; 67 µM (inactive) in the experiment with KM12. The GI50 with Malme-3M is 57.5 µM (inactive); with NCI-H226, 68.7 µM (inactive); in the experiment with NCI-H522 it was 30.9 µM (inactive); in the experiment on OVCAR-3, 42.2 µM (inactive); with OVCAR-5, 43.8 µM (inactive); in the experiment on SF-268, 48.2 µM (inactive). The GI50 is > 100 µM (inactive) with SK-MEL-28; 24.4 µM (inactive) in the experiment with SK-MEL-5; 50.6 µM (inactive) in the experiment with SK-OV-3; 40.2 µM (inactive) with SR; 33.6 µM (inactive) in the experiment on U-251; 29.6 µM (inactive) in the experiment with UO-31.

In the case of `COc1cc2ccc3c4c(OC)cc(OC)c(OC)c4c([O-])[n+](C)c3c2cc1OC`, the GI50 with A498 was 3.76 µM (inactive); in the experiment on A549, 4.01 µM (inactive); in the experiment on ACHN, > 24.8 µM (inactive); with HL-60, 1.33 µM (inactive); in the experiment on HOP-92, 12 µM (inactive); with KM12 it was 4.37 µM (inactive). Also, the GI50 was 17.5 µM (inactive) in the experiment with Malme-3M; 2.55 µM (inactive) in the experiment with NCI-H522; 7.13 µM (inactive) in the experiment on OVCAR-3; 11.1 µM (inactive) with OVCAR-5; 3.46 µM (inactive) with SF-268; 30.3 µM (inactive) in the experiment on SK-MEL-28. For the same compound, the GI50 with SK-MEL-5 is 9.02 µM (inactive); in the experiment on SK-OV-3, > 33 µM (inactive); in the experiment with SR, 0.759 µM (active); in the experiment on U-251, 1.39 µM (inactive); in the experiment with UO-31, > 34 µM (inactive).

Take `COc1ccc(C)cc1C1CCC(=O)O1` (configuration not stated): the GI50 in the experiment with A498, in the experiment with A549, with ACHN, in the experiment on HL-60, in the experiment with KM12 and in the experiment on Malme-3M was > 100 µM (inactive) throughout. Besides, the GI50 in the experiment on NCI-H226, in the experiment on NCI-H522, in the experiment with OVCAR-3, with OVCAR-5, in the experiment with SK-MEL-28 and in the experiment with SK-MEL-5 was > 100 µM (inactive) in each case. For the same compound, the GI50 in the experiment on SK-OV-3, with SR, in the experiment on U-251 and with UO-31 was > 100 µM (inactive) in each case.

With `CSC(=S)OC1C(CO[Si](C)(C)C(C)(C)C)OC2OC(C)(C)OC21` (configuration not stated), the GI50 in the experiment with A498 is 21.8 µM (inactive); with A549, 25.5 µM (inactive); in the experiment on ACHN, 17.1 µM (inactive); with KM12 it was 15.6 µM (inactive); with Malme-3M, 14.8 µM (inactive); with NCI-H226, 14.5 µM (inactive). The GI50 is 15.8 µM (inactive) with NCI-H522; 17 µM (inactive) with OVCAR-3; 21.3 µM (inactive) in the experiment with OVCAR-5; 15.2 µM (inactive) in the experiment with SF-268; 40.6 µM (inactive) in the experiment on SK-MEL-28; 16.8 µM (inactive) in the experiment on SK-MEL-5. Also, the GI50 in the experiment on SK-OV-3 was 20.2 µM (inactive); in the experiment on SR, 13.7 µM (inactive); in the experiment with U-251, 17.5 µM (inactive); with UO-31, 17.7 µM (inactive).

For the compound `CCCn1cc2c(SC)nc(SC)nc2n1`, the GI50 in the experiment with A498, in the experiment on A549, in the experiment on ACHN, with HL-60, in the experiment with HOP-92 and with KM12 was > 100 µM (inactive) each time. For the same compound, the GI50 was > 100 µM (inactive) with Malme-3M; 32.2 µM (inactive) with NCI-H226; > 100 µM (inactive) in the experiment with OVCAR-5; > 100 µM (inactive) in the experiment on SF-268; > 100 µM (inactive) in the experiment on SK-MEL-28; > 100 µM (inactive) in the experiment with SK-MEL-5. Further, the GI50 with SR, in the experiment on U-251 and in the experiment with UO-31 was > 100 µM (inactive) in each case.

On to `C#C[C@H]1CCCCCC1O` (some centres not stated), for which the GI50 in the experiment with A498 is > 100 µM (inactive); in the experiment on A549, > 100 µM (inactive); in the experiment on ACHN, > 100 µM (inactive); in the experiment on HL-60, 36.1 µM (inactive); in the experiment with HOP-92 it was > 100 µM (inactive); with KM12, > 100 µM (inactive). Also, the GI50 in the experiment with Malme-3M was 65.6 µM (inactive); in the experiment with NCI-H226, > 100 µM (inactive); with NCI-H522, > 100 µM (inactive); in the experiment on OVCAR-3 it was > 100 µM (inactive); in the experiment with OVCAR-5, > 100 µM (inactive); in the experiment with SF-268, > 100 µM (inactive). Moreover, the GI50 in the experiment on SK-MEL-28 was > 100 µM (inactive); in the experiment on SK-MEL-5, > 100 µM (inactive); in the experiment on SK-OV-3, > 100 µM (inactive); in the experiment with SR, 97.7 µM (inactive); with U-251 it was > 100 µM (inactive); in the experiment with UO-31, > 100 µM (inactive).
